The source of these data is patent US20230063457A1, “DNA-PK INHIBITING COMPOUNDS” (Provincial Health Services Authority, priority 2019, published 2023).

One series deals with HCT116 cells. Nature of the series: Stirred cell suspension assay, release of parent inhibitor from prodrug (HCT116). The series is classed as cell-based, human. To be noted: hypoxic conditions; 1% HCT116 cells by volume in media with 10% FBS at 37° C., FIG. 2. The method, then: Stirred Cell Suspension Assay
All compounds tested were dissolved in DMSO at 10 mM/L and further dilutions were made in culture medium. Final DMSO concentration was <0.3% (v/v). The human FaDu and HCT116 cells (ATCC) were cultured in MEM medium and 10% fetal calf serum (PAA). Cells were routinely maintained at densities of 0.2×10e6 cells per ml and incubated at 37° C. in a humidified 5% CO2, 95% air atmosphere. Cells were passaged twice a week, splitting back to obtain the low density. At the time of experiment, cells were trypsinized, counted and suspended at a density of 1% cells/volume in glass vials containing 2 ml stirred media and gassed at different pO2. After 30 minutes, test compounds were added at 25 μM/L and 150 μl samples were removed at intervals up to 4 hours. Each sample was split to test for (1) free drug and (2) total extraction and analysed using high performance liquid chromatography to measure the release of the parent inhibitor from the hypoxia activated prodrug.

Series [1] has as its target T1, Phospho-DNA-PK in FaDu Cells (Homo sapiens, UniProt P78527).
T1 construct: host or cells: FaDu
Nature of the series: Effect of compounds on phospho-DNA-PK in FaDu cells (MesoScale sandwich immunoassay). The series is classed as cell-based. To be noted: 1 hour pre-incubation, 1 μg/ml Neocarzinostatin 2 hours, averaged values, read-out: MSD FaDu IC50. The procedure: Effect of Compounds on Phospho-DNA-PK in FaDu Cells
All compounds tested were dissolved in DMSO and further dilutions were made in culture medium. Final DMSO concentration was 0.3% (v/v). The human FaDu cells (ATCC) were cultured in MEM medium supplemented with Glutamax and 10% fetal calf serum (PAA). Cells were routinely maintained at densities of 0.2×10^6 cells per ml at 37° C. in a humidified 5% CO2, 95% air atmosphere. Cells were passaged twice a week, splitting back to obtain the low density. Cells were seeded in 96 well plates (Corning 3904) at 1×10^6 cells per ml media in a volume of 50 μl per well. Seeded cells were incubated at 37° C. in a humidified 5% CO2, 95% air atmosphere for 24 hours. Compounds were added (25 μl) to the cells and pre-incubated for 1 hour. 1 μg/ml DNA-damaging agent Neocarzinostatin (NCS) was added (25 μl) to a final volume of 100 μl and incubated for 2 hours at 37° C. in a humidified 5% CO2, 95% air atmosphere. After this period of time plates were removed from the incubator and the 100 μl dilutions were removed from the wells gently, prior to the addition of 75 μl cold RIPA lysis buffer with protease and phosphatase inhibitors to achieve the cells lysis, followed by shaking on a plate shaker at 4° C. for 30 minutes. At the end of this incubation, lysate was assessed for phospho-DNA-PK levels by sandwich immune-assay carried out in anti-mouse antibody coated MesoScale plates. […] Signal obtained in the wells containing blank samples was subtracted from all other wells and IC50 values were determined by fitting a sigmoidal curve to % inhibition of control versus Logo compound concentration.

Another series has as its target DNA-PK kinase (Homo sapiens, UniProt P78527). Nature of the series: Inhibition of DNA-PK kinase activity (ADP-Glo). The series is classed as biochemical. The following applies: averaged values over all measurements on all batches; 150 μM ATP, 1 hour at 25° C. The procedure, abridged:
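Enzyme preincubated 15 min with compound in 50 mM Hepes pH 7.5, 20 mM MgCl2, 10 μg/ml calf thymus DNA, 1% DMSO; reaction started with 150 μM ATP and 0.2 μg/μl DNA-PK substrate, 1 h at 25° C. ADP-Glo luminescence, blank-subtracted; IC50 from sigmoidal fit of % inhibition versus log concentration.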

What is called IC50 is the midpoint of a concentration-inhibition curve.

As for `CC(C)n1ncc(COc2cnc3cc(N4CCOCC4)nc(O[C@H]4CC[C@@H](n5ccnc5)CC4)c3c2)c1[N+](=O)[O-]` [Prodrug 15], the “conversion of prodrug to the respective parent compound” value in the series with HCT116 cells is “released the respective parent compound”. Regarding `C[C@@H]1COCCN1c1cc2ncccc2c(O[C@H]2CC[C@@H](c3nc[nH]n3)CC2)n1` [Example 69], the 50% inhibitory concentration (IC50) in series [1] stood at 5.05 µM; against DNA-PK kinase, 0.261 µM. For the compound `FC(F)(F)c1cnc(NCC2CCN(c3nc(N4CCOCC4)cc4ncccc34)CC2)nc1` [Example 121], the IC50 in series [1] was determined as 3.52 µM; at DNA-PK kinase, 0.143 µM. For `c1cnc2cc(N3CCOCC3)nc(N3CCC(CNc4ccncn4)CC3)c2c1` [Example 120] the same measures were 3.18 µM and 0.14 µM.
